Results on seven substances are retold here after patent publication US20210076698A1, “METHODS OF MAINTAINING OR INCREASING GROWTH OR COGNITIVE DEVELOPMENT” (FONTERRA CO-OPERATIVE GROUP LIMITED, priority 2007, published 2021).

In series [1] the test system is neuronal out growth. Conditions: cited from earlier work.
The target of series [2] is cholera toxin (Vibrio cholerae serotype O1, UniProt P01556). The conditions noted are these: cited from earlier work.
Series [3] deals with human placenta. The experiment in a line: Placental transfer trial, dual perfused human placental lobules (Example 3). In kind it is in vitro ADME. From the text:
Dual perfused human lobules were taken from six placentae of uncomplicated term pregnancies (normal elective Caesarean patients). Maternal and fetal arterial and venous supplies were isolated, catheterised and the placenta maintained by perfusion of sterile krebs buffer (that also contains serum albumin to aid transport of lipophilic substances) at room temperature in a sterile air perfusion chamber at constant flow rate and pressure. The perfusion technique used was modified from Glance et al (1984) according to Collier et al (2004).
Equilibration was performed for 60 min to assess physical integrity of tissue and circuits (fetal arterial pressure <40 mmHg and leakage of perfusate from fetal to maternal circuit <2 ml/h) then the maternal and fetal reservoirs replaced with fresh media containing doses of test substances. Time zero and then hourly samples are collected from all circuits and stored frozen for analysis. Metabolic viability of the preparation is assessed with samples collected hourly from maternal and fetal arteries and analysed for oxygen and carbon dioxide saturation, electrolytes and glucose consumption (Bayer 865 Blood Gas Analyzer, Bayer Diagnostics and lactate production (Hitachi 917, Roche Diagnostics). 10 μg/mL of milk-derived ganglioside mixture (GM3+GD3—isolated from G600™ precursor described above) was added to the maternal reservoir. Perfusion was conducted for up to 3 hours using a closed loop system. Samples were taken from both reservoirs at that point (t=0) and at regular time-points, snap frozen in liquid nitrogen, and subsequently assayed for GM3, GD3, and lobule viability.
GM3 and GD3 contents of the perfusates were measured by LC-MS using a Hypersil APS2 column, normal phase acetonitrile gradient and detected in the LTQ orbitrap in negative ion full scan, as described below. Perfusate samples were “protein crashed” by addition into methanol, allowed to stand for 60 min at 4° C. before centrifugation (20,000×g). An aliquot (10-50 μL) was loaded onto an online C18 trap, washed (50% MeOH), before eluted onto a Hypersil APS2 column (Thermo Finnigan, MA, USA). Gangliosides were separated on a normal phase gradient, and detected in the LTQ Orbitrap Mass spectrometer (ThermoFinnigan, Ma, USA) in negative ion mode. The LC-MS system was calibrated using GD3 and GM3 standards purchased from Matreya (Pa, USA). Lobule viability was assessed by Glucose uptake and lactate production, measured with an Autoanalyzer.

The conditions of series [4]: rats (Hungund et al, 1993); cited from earlier work.
Setting [5] is: 10 μg/mL GM3+GD3 mixture in maternal reservoir, perfusion up to 3 hours.

Chain of cholera toxin (P01556 22-124 limits assumed): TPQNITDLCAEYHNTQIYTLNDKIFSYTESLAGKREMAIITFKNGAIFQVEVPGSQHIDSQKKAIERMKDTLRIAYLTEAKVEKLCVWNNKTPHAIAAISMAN

For 9-O-acetyl GD3 [reference compound], the “effect on neuronal out growth” value in series [1] is “promotes”.
As to GD1a, in series [2], the “binding of cholera toxin” value is given as “negligible binding”.
With GD3, the “concentrations in foetal perfusate” value in series [3] (LC-MS) is given as “below assay sensitivity”. Besides, the “reduction in maternal concentrations” value in series [3] (average, all cases) is reported as 25-30%. For the same substance, the “effect on neuronal out growth” value in series [1] is recorded as “does not”.
In the case of GM2, the “binding of cholera toxin” value in series [2] is given as “negligible binding”.
As for GM3, in series [3] (setting [5]), the “increase of foetal perfusate concentration over time” value is “approximately 6 fold” and the “transfer across the human placenta” value is recorded as “evidence of transfer”. In addition, the “reduction of maternal perfusate concentration” value in series [3] (on average, from the starting maternal concentration) is recorded as “half”. Moreover, in series [3] (starting level in maternal perfusate), the “maternal perfusate concentration before reduction” value is listed as “approximately 300 ng/ml”.
Ganglioside GM1a: the “crossing of the placenta” value in series [4] was “cross the placenta”.
With ganglioside GM1, the “binding of cholera toxin” value in series [2] was “specific”.
